From ChEMBL document CHEMBL4265935, “Synthesis and evaluation of novel arctigenin derivatives as potential anti-Toxoplasma gondii agents” (Eur J Med Chem, 2018)
pIC50: −log10 of the molar value. Activity calls are given as the source filed them. The calls are words filed in the database; no cut-off is given here.

Tests used:
[1] = Selectivity index, ratio of IC50 for human HeLa cells to ratio of IC50 for Toxoplasma gondii RH tachyzoites; type: toxicity; settings: HeLa cells versus Toxoplasma gondii RH tachyzoites, read-out: Ratio IC50
[2] = tested on: Toxoplasma gondii; assay: Antiparasitic activity against Toxoplasma gondii RH tachyzoites by MTT assay; type: functional, organism-based
[3] = tested on: HeLa; assay: Cytotoxicity against human HeLa cells assessed as reduction in cell viability by MTT assay; type: cell-based
[4] = tested on: Toxoplasma gondii; assay: Antiparasitic activity against Toxoplasma gondii RH infected in Kunming mouse assessed as increase in survival rate by measuring mortality day at 100 mg/kg, po qd administered via gavage for several consecutive days measured on day 10 (reference value: 9 to 11 days); type: functional
[5] = tested on: Toxoplasma gondii; assay: Antiparasitic activity against Toxoplasma gondii RH infected in Kunming mouse assessed as improvement of hepatomegaly at 100 mg/kg, po qd administered via gavage for 4 consecutive days measured on day 5; type: functional, organism-based
[6] = tested on: Toxoplasma gondii; assay: Antiparasitic activity against Toxoplasma gondii RH tachyzoites infected in human HeLa cells assessed as cell survival at 100 uM after 24 hrs by trypan blue assay (reference value: 20.8%); type: functional
[7] = tested on: Toxoplasma gondii; assay: Antiparasitic activity against Toxoplasma gondii RH infected in Kunming mouse assessed as improvement of splenomegaly at 100 mg/kg, po qd administered via gavage for 4 consecutive days measured on day 5; type: functional, organism-based
[8] = tested on: Toxoplasma gondii; assay: Antiparasitic activity against Toxoplasma gondii RH infected in Kunming mouse assessed as survival rate at 100 mg/kg, po qd administered via gavage for several consecutive days measured on day 20 relative to control; type: functional; settings: 480 h
[9] = tested on: Toxoplasma gondii; assay: Antiparasitic activity against Toxoplasma gondii RH infected in Kunming mouse assessed as reduction in serum AST level at 100 mg/kg, po qd administered via gavage for 4 consecutive days measured on day 5; type: functional, organism-based
[10] = tested on: Toxoplasma gondii; assay: Antiparasitic activity against Toxoplasma gondii RH tachyzoites infected in human HeLa cells assessed as increase in cell survival at 100 uM after 24 hrs by trypan blue assay relative to spiramycin; type: functional
[11] = tested on: Toxoplasma gondii; assay: Antiparasitic activity against Toxoplasma gondii RH infected in Kunming mouse assessed as decrease in GSH level in liver at 100 mg/kg, po qd administered via gavage for 4 consecutive days measured on day 5; type: functional, organism-based
[12] = tested on: Toxoplasma gondii; assay: Antiparasitic activity against Toxoplasma gondii RH infected in Kunming mouse assessed as reduction in serum ALT level at 100 mg/kg, po qd administered via gavage for 4 consecutive days measured on day 5; type: functional, organism-based
[13] = tested on: Toxoplasma gondii; assay: Antiparasitic activity against Toxoplasma gondii RH infected in Kunming mouse assessed as inhibition of number of intraperitoneal tachyzoite in abdominal cavity at 100 mg/kg, po qd administered via gavage for 4 consecutive days measured on day 5 by light microscopic analysis relative to control; type: functional; settings: 120 h
[14] = tested on: Toxoplasma gondii; assay: Antiparasitic activity against Toxoplasma gondii RH infected in Kunming mouse assessed as increase in GSH level in liver at 100 mg/kg, po qd administered via gavage for 4 consecutive days measured on day 5; type: functional, organism-based
[15] = tested on: Toxoplasma gondii; assay: Antiparasitic activity against Toxoplasma gondii RH infected in Kunming mouse assessed as increase in body weight at 100 mg/kg, po qd administered via gavage for several consecutive days; type: functional, organism-based
[16] = tested on: Toxoplasma gondii; assay: Antiparasitic activity against Toxoplasma gondii RH tachyzoites infected in human HeLa cells assessed as decrease in cell shrinkage at 100 uM after 24 hrs by inverted optical microscopic analysis; type: functional, organism-based
[17] = tested on: Toxoplasma gondii; assay: Antiparasitic activity against Toxoplasma gondii RH infected in Kunming mouse assessed as inhibition of number of intraperitoneal tachyzoite in abdominal cavity at 200 mg/kg, po qd administered via gavage for 4 consecutive days measured on day 5 by light microscopic analysis relative to control; type: functional
[18] = tested on: Toxoplasma gondii; assay: Antiparasitic activity against Toxoplasma gondii RH tachyzoites infected in human HeLa cells assessed as decrease in number of cell death at 100 uM after 24 hrs by inverted optical microscopic analysis; type: functional, organism-based
[19] = tested on: Toxoplasma gondii; assay: Antiparasitic activity against Toxoplasma gondii RH infected in Kunming mouse assessed as increase in survival rate by measuring mortality day at 100 mg/kg, po qd administered via gavage for several consecutive days measured on day 12 (reference value: 9 to 11 days); type: functional

SMILES	selectivity ratio [1]	pIC50 [2]	pIC50 [3]	further results
COc1ccc(C[C@H]2COC(=O)[C@@H]2Cc2ccc(OCc3cn(Cc4ccc(Cl)cc4)nn3)c(OC)c2)cc1OC	0.97	3.60	3.62	–
COc1ccc(C[C@H]2COC(=O)[C@@H]2Cc2ccc(OCC(=O)N3CCOCC3)c(OC)c2)cc1OC	–	≤ 3.22	≤ 3.22	–
CCN(CC)C(=O)CCC(=O)Oc1ccc(C[C@H]2C(=O)OC[C@@H]2Cc2ccc(OC)c(OC)c2)cc1OC	1.04	3.69	3.67	–
COC(=O)CNC(=O)CCC(=O)Oc1ccc(C[C@H]2C(=O)OC[C@@H]2Cc2ccc(OC)c(OC)c2)cc1OC	1.14	3.80	3.75	–
COc1ccc(C[C@H]2COC(=O)[C@@H]2Cc2ccc(OCc3cn(Cc4ccccc4F)nn3)c(OC)c2)cc1OC	> 35.1	4.77	≤ 3.22	mortality [4]: 10 days; Activity [5]: Active; survival at 100 µM [6]: 68.4%; Activity [7]: Active; survival at 100 mg/kg [8]: 16%; Activity [9]: Active; Activity [10]: 28.4%; Activity [11]: Active; Activity [12]: inactive; inhibition in vivo at 100 mg/kg [13]: 66.9%; Activity [14]: Active; Activity [15]: Active
COC(=O)[C@@H](Cc1ccccc1)NC(=O)CCC(=O)Oc1ccc(C[C@H]2C(=O)OC[C@@H]2Cc2ccc(OC)c(OC)c2)cc1OC	1.58	3.65	3.45	–
COc1ccc(C[C@H]2COC(=O)[C@@H]2Cc2ccc(OCc3cn(-c4ccc(Br)cc4)nn3)c(OC)c2)cc1OC	0.3	3.37	3.89	–
COc1cc(C[C@H]2C(=O)OC[C@@H]2Cc2ccc(OC)c(OC)c2)ccc1O [ARCTIGENIN]	0.98	3.23	3.24	mortality [4]: 10 days; Activity [5]: Active; Activity [16]: Active; inhibition [17]: Active; Activity [18]: Active; survival at 100 mg/kg [8]: 16%; Activity [9]: Active; Activity [10]: 18.4%; Activity [11]: Active; Activity [12]: inactive; inhibition in vivo at 100 mg/kg [13]: 75.9%; Activity [15]: Active
COC(=O)CC[C@H](NC(=O)CCC(=O)Oc1ccc(C[C@H]2C(=O)OC[C@@H]2Cc2ccc(OC)c(OC)c2)cc1OC)C(=O)OC	0.61	3.80	4.02	–
COc1ccc(C[C@H]2COC(=O)[C@@H]2Cc2ccc(OCC(=O)N3CCCC3)c(OC)c2)cc1OC	> 1.78	3.47	≤ 3.22	–
COc1ccc(-n2cc(COc3ccc(C[C@H]4C(=O)OC[C@@H]4Cc4ccc(OC)c(OC)c4)cc3OC)nn2)cc1	–	≤ 3.22	≤ 3.22	–
COC(=O)[C@H](CC(C)C)NC(=O)CCC(=O)Oc1ccc(C[C@H]2C(=O)OC[C@@H]2Cc2ccc(OC)c(OC)c2)cc1OC	0.85	4.20	4.27	–
COc1ccc(C[C@H]2COC(=O)[C@@H]2Cc2ccc(OCc3cn(-c4cccc(Cl)c4)nn3)c(OC)c2)cc1OC	1.83	3.57	3.31	–
COc1ccc(C[C@H]2COC(=O)[C@@H]2Cc2ccc(OC(=O)CCC(=O)N3CCCCC3)c(OC)c2)cc1OC	3.12	4.39	3.89	–
COC(=O)[C@H](CCSC)NC(=O)CCC(=O)Oc1ccc(C[C@H]2C(=O)OC[C@@H]2Cc2ccc(OC)c(OC)c2)cc1OC	1.2	3.78	3.70	–
COc1ccc(C[C@H]2COC(=O)[C@@H]2Cc2ccc(OCc3cn(-c4ccc(F)cc4)nn3)c(OC)c2)cc1OC	–	≤ 3.22	≤ 3.22	–

SMILES	selectivity ratio [1]	pIC50 [2]	pIC50 [3]	further results
COc1ccc(C[C@H]2COC(=O)[C@@H]2Cc2ccc(OCc3cn(Cc4ccc(F)cc4)nn3)c(OC)c2)cc1OC	< 0.33	≤ 3.22	3.70	–
COc1ccc(C[C@H]2COC(=O)[C@@H]2Cc2ccc(OCc3cn(-c4ccc(Cl)cc4)nn3)c(OC)c2)cc1OC	1	3.56	3.55	–
COc1ccc(C[C@H]2COC(=O)[C@@H]2Cc2ccc(OC(=O)CCC(=O)N3CCCC3)c(OC)c2)cc1OC	1.74	3.94	3.70	–
COc1ccc(C[C@H]2COC(=O)[C@@H]2Cc2ccc(OCc3cn(Cc4ccccc4Cl)nn3)c(OC)c2)cc1OC	3.48	4.61	4.07	–
COC(=O)[C@@H](NC(=O)CCC(=O)Oc1ccc(C[C@H]2C(=O)OC[C@@H]2Cc2ccc(OC)c(OC)c2)cc1OC)C(C)C	1.96	4.49	4.19	–
CCN1CCN(C(=O)CCC(=O)Oc2ccc(C[C@H]3C(=O)OC[C@@H]3Cc3ccc(OC)c(OC)c3)cc2OC)CC1	2.01	4.03	3.72	–
COC(=O)[C@H](Cc1ccccc1)NC(=O)CCC(=O)Oc1ccc(C[C@H]2C(=O)OC[C@@H]2Cc2ccc(OC)c(OC)c2)cc1OC	–	≤ 3.22	≤ 3.22	–
COC(=O)[C@@H]1CCCN1C(=O)CCC(=O)Oc1ccc(C[C@H]2C(=O)OC[C@@H]2Cc2ccc(OC)c(OC)c2)cc1OC	3.31	4.36	3.84	–
COc1ccc(C[C@H]2COC(=O)[C@@H]2Cc2ccc(OCC(=O)Nc3ccccc3)c(OC)c2)cc1OC	> 14.8	4.39	≤ 3.22	Activity [5]: Active; mortality [19]: 12 days; survival at 100 µM [6]: 69.7%; Activity [9]: Active; Activity [10]: 29.7%; Activity [12]: inactive; inhibition in vivo at 100 mg/kg [13]: 82%; Activity [14]: Active
CCN(CC)C(=O)COc1ccc(C[C@H]2C(=O)OC[C@@H]2Cc2ccc(OC)c(OC)c2)cc1OC	0.48	3.41	3.73	–
COc1ccc(C[C@H]2COC(=O)[C@@H]2Cc2ccc(OCC(=O)Nc3ccc(C)cc3)c(OC)c2)cc1OC	0.71	3.49	3.64	–
COc1ccc(C[C@H]2COC(=O)[C@@H]2Cc2ccc(OCc3cn(-c4ccccc4)nn3)c(OC)c2)cc1OC	0.92	3.87	3.91	–
COC(=O)[C@@H](NC(=O)CCC(=O)Oc1ccc(C[C@H]2C(=O)OC[C@@H]2Cc2ccc(OC)c(OC)c2)cc1OC)c1ccccc1	0.92	4.07	4.11	–
COc1ccc(C[C@H]2COC(=O)[C@@H]2Cc2ccc(OCc3cn(Cc4ccccc4)nn3)c(OC)c2)cc1OC	0.53	3.19	3.46	–
COc1ccc(C[C@H]2COC(=O)[C@@H]2Cc2ccc(OCc3cn(-c4ccc(C)cc4)nn3)c(OC)c2)cc1OC	> 1.64	3.44	≤ 3.22	–
COc1ccc(C[C@H]2COC(=O)[C@@H]2Cc2ccc(OCC(=O)N3CCCCC3)c(OC)c2)cc1OC	0.94	3.51	3.53	–
